From patent publication US6858591B2, “Antibiotic AA 896 analogs” (Wyeth Holdings Corporation, priority 2001, dated 2005)
Values after ≈ are worked out from the molar mass of the structure shown. Like-named read-outs stand apart in the source and are kept apart here.

Tests used:
Test in all cases: In vitro MIC, broth dilution
Assay type in all cases: cell-based
E. coli GC 4559 = conditions: Escherichia coli, GC4559; E. coli GC 4559; read-out: MIC
E. coli GC 4560 = conditions: Escherichia coli, GC4560; E. coli GC 4560; read-out: MIC
E. coli GC 3226 = conditions: Escherichia coli, GC3226; E. coli GC 3226; read-out: MIC
S. marcescens GC 4077 = conditions: Serratia marcescens, GC4077; S. marcescens GC 4077; read-out: MIC
C. albicans GC 3066 = conditions: Candida albicans, GC3066; C. albicans GC 3066; read-out: MIC
M. morganii GC 4531 = conditions: Morganella morganii, GC4531; M. morganii GC 4531; read-out: MIC
K. pneumoniae GC 4534 = conditions: Klebsiella pneumoniae, GC4534; K. pneumoniae GC 4534; read-out: MIC
E. cloacae GC 3783 = conditions: Enterobacter cloacae, GC3783; E. cloacae GC 3783; read-out: MIC
P. aeruginosa GC 4532 = conditions: Pseudomonas aeruginosa, GC4532; P. aeruginosa GC 4532; read-out: MIC
CNS GC 4537 = system: CNS GC 4537
Procedure, shortened: (§1)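 Susceptibility testing used the NCCLS broth dilution method. Antibiotic spanned 64-0.06 μg/ml against an inoculum of 5×10^5 CFU/ml in Mueller-Hinton II; after 18 hours at 35° C the lowest concentration without growth gave the MIC.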

CNS GC 4538 = system: CNS GC 4538
Procedure, shortened: as §1

CNS GC 4547 = system: CNS GC 4547
Procedure, shortened: as §1

E. faecalis GC 2242 = conditions: Enterococcus faecalis, GC2242; E. faecalis GC 2242; read-out: MIC
Procedure, shortened: as §1

E. faecalis GC 4555 = conditions: Enterococcus faecalis, GC4555; E. faecalis GC 4555; read-out: MIC
Procedure, shortened: as §1

E. faecalis GC 842 = conditions: Enterococcus faecalis, GC842; E. faecalis GC 842; read-out: MIC
Procedure, shortened: as §1

S. aureus GC 1131 = conditions: Staphylococcus aureus, GC1131; S. aureus GC 1131; read-out: MIC
Procedure, shortened: as §1

S. aureus GC 2216 = conditions: Staphylococcus aureus, GC2216; S. aureus GC 2216; read-out: MIC
Procedure, shortened: as §1

S. aureus GC 4536 = conditions: Staphylococcus aureus, GC4536; S. aureus GC 4536; read-out: MIC
Procedure, shortened: as §1

E. coli GC 2203 = conditions: Escherichia coli, GC2203; E. coli GC 2203; read-out: MIC
P. aeruginosa GC 2214 = conditions: Pseudomonas aeruginosa, GC2214; P. aeruginosa GC 2214; read-out: MIC

| SMILES | MIC (E. coli GC 4559) [µg/mL] | MIC (E. coli GC 4560) [µg/mL] | MIC (E. coli GC 3226) [µg/mL] | MIC (S. marcescens GC 4077) [µg/mL] | MIC (C. albicans GC 3066) [µg/mL] | MIC (M. morganii GC 4531) [µg/mL] | MIC (K. pneumoniae GC 4534) [µg/mL] | MIC (E. cloacae GC 3783) [µg/mL] | MIC (P. aeruginosa GC 4532) [µg/mL] | MIC (CNS GC 4537; CNS GC 4537, read-out: MIC) [µg/mL] | MIC (CNS GC 4538; CNS GC 4538, read-out: MIC) [µg/mL] | MIC (CNS GC 4547; CNS GC 4547, read-out: MIC) [µg/mL] | MIC (E. faecalis GC 2242) [µg/mL] | MIC (E. faecalis GC 4555) [µg/mL] | MIC (E. faecalis GC 842) [µg/mL] | MIC (S. aureus GC 1131) [µg/mL] | MIC (S. aureus GC 2216) [µg/mL] | MIC (S. aureus GC 4536) [µg/mL] | MIC (E. coli GC 2203) [µg/mL] | MIC (P. aeruginosa GC 2214) [µg/mL] | further results |
| --- | --- | --- | --- | --- | --- | --- | --- | --- | --- | --- | --- | --- | --- | --- | --- | --- | --- | --- | --- | --- | --- |
| COc1ccc(Cn2c(=O)ccn([C@@H]3OC([C@H](O)[C@H](NCCCNC(=O)[C@@H](N)[C@H](C)O)C(=O)OC(C)(C)C)[C@@H](O[Si](C)(C)C(C)(C)C)[C@H]3O[Si](C)(C)C(C)(C)C)c2=O)cc1 (stereo partly drawn) [Example 11, tert-Butyl (2S,3R)-2-[(3-{[(2S,3S)-2-amino-3-hydroxybutanoyl]amino}propyl)amino]-3-[(3R,4R,5R)-3,4-bis{[tert-butyl(dimethyl)silyl]oxy}-5-(3-(4-methoxybenzyl)-2,4-dioxo-3,4-dihydro-1(2H)-pyrimidinyl)tetrahydro-2-furanyl]-3-hydroxypropanoate] | > 128 | > 128 | > 128 | > 128 | > 128 | > 128 | > 128 | > 128 | > 128 | 4 (≈ 4.54 µM) | 4 (≈ 4.54 µM) | 8 (≈ 9.09 µM) | 8 (≈ 9.09 µM) | 4 (≈ 4.54 µM) | 4 (≈ 4.54 µM) | 8 (≈ 9.09 µM) | 4 (≈ 4.54 µM) | 4 (≈ 4.54 µM) | > 128 | 128 (≈ 145 µM) | – |
| CCOC(=O)C(NCCCNC(=O)[C@@H](NC(=O)[C@H](CCCNC(=N)N[N+](=O)[O-])NC(=O)N[C@H](C(=O)OCc1ccccc1)C(C)C)C(C)O)C(O)[C@H]1O[C@@H](n2ccc(=O)[nH]c2=O)[C@H](OC(C)=O)[C@@H]1OC(C)=O (some centres unmarked) [Example 35] | > 128 | > 128 | > 128 | > 128 | 128 (≈ 125 µM) | 128 (≈ 125 µM) | > 128 | > 128 | 128 (≈ 125 µM) | – | – | – | 128 (≈ 125 µM) | > 128 | > 128 | > 128 | > 128 | > 128 | > 128 | 128 (≈ 125 µM) | MIC (CNS GC 4537): > 128 µg/mL; MIC (CNS GC 4538): > 128 µg/mL; MIC (CNS GC 4547): > 128 µg/mL |
| COc1ccc(Cn2c(=O)ccn([C@@H]3OC([C@H](O)[C@H](NCCCNC(=O)[C@@H](N)CCCCN)C(=O)OC(C)(C)C)[C@@H](O[Si](C)(C)C(C)(C)C)[C@H]3O[Si](C)(C)C(C)(C)C)c2=O)cc1 (stereo partly drawn) [Example 19, tert-Butyl (2S,3R)-3-[(3R,4R,5R)-3,4-bis{[tert-butyl(dimethyl)silyl]oxy}-5-(3-(4-methoxybenzyl)-2,4-dioxo-3,4-dihydro-1(2H)-pyrimidinyl)tetrahydro-2-furanyl]-2-[(3-{[(2S)-2,6-diaminohexanoyl]amino}propyl)amino]-3-hydroxypropanoate] | > 128 | 8 (≈ 8.82 µM) | 128 (≈ 141 µM) | 128 (≈ 141 µM) | > 128 | 128 (≈ 141 µM) | > 128 | > 128 | 128 (≈ 141 µM) | 8 (≈ 8.82 µM) | 8 (≈ 8.82 µM) | 16 (≈ 17.6 µM) | 8 (≈ 8.82 µM) | 8 (≈ 8.82 µM) | 8 (≈ 8.82 µM) | 4 (≈ 4.41 µM) | 8 (≈ 8.82 µM) | 8 (≈ 8.82 µM) | 128 (≈ 141 µM) | 128 (≈ 141 µM) | – |
| COc1ccc(Cn2c(=O)ccn([C@@H]3OC([C@H](O)[C@H](NCCCNC(=O)[C@@H](NC(=O)OCc4ccccc4)[C@H](C)O)C(=O)OC(C)(C)C)[C@@H](O)[C@H]3O)c2=O)cc1 (stereo partly drawn) [Example 44, tert-Butyl (5S,12S)-12-[(R)-[(3S,4R,5R)-3,4-dihydroxy-5-(3-(4-methoxybenzyl)-2,4-dioxo-3,4-dihydro-1(2H)-pyrimidinyl)tetrahydro-2-furanyl](hydroxy)methyl]-5-[(1S)-1-hydroxyethyl]-3,6-dioxo-1-phenyl-2-oxa-4,7,11-triazatridecan-13-oate] | > 128 | 128 (≈ 163 µM) | > 128 | 128 (≈ 163 µM) | 128 (≈ 163 µM) | 128 (≈ 163 µM) | > 128 | > 128 | 128 (≈ 163 µM) | > 128 | > 128 | > 128 | 64 (≈ 81.4 µM) | 128 (≈ 163 µM) | 128 (≈ 163 µM) | > 128 | > 128 | > 128 | > 128 | 128 (≈ 163 µM) | – |
| CCOC(=O)C(NCCCNC(=O)[C@@H](NC(=O)[C@H](CCCNC(=N)N[N+](=O)O)NC(=O)N[C@H](C(=O)OCc1ccccc1)C(C)C)C(C)O)C(O)[C@H]1O[C@H](n2ccc(=O)[nH]c2=O)[C@H](OC(C)=O)[C@@H]1OC(C)=O (stereo partly drawn) [Example 34, 16-Benzyl 2-ethyl (1R,9S,12S,16S)-1-[(2R,3R,4R,5S)-3,4-bis(acetyloxy)-5-(2,4-dioxo-3,4-dihydro-1(2H)-pyrimidinyl)tetrahydro-2-furanyl]-12-(3-{[(2,2-dioxido-2lambda˜1˜-diazanyl)(imino)methyl]amino}propyl)-1-hydroxy-9-[(1S)-1-hydroxyethyl]-17-methyl-8,11,14-trioxo-3,7,10,13,15-pentaazaoctadecane-2,16-dicarboxylate] | > 128 | > 128 | > 128 | > 128 | 128 | > 128 | > 128 | > 128 | 128 | – | – | – | 128 | > 128 | > 128 | > 128 | > 128 | > 128 | > 128 | 128 | MIC (CNS GC 4537): > 128 µg/mL; MIC (CNS GC 4538): > 128 µg/mL; MIC (CNS GC 4547): > 128 µg/mL |
| CCOC(=O)C(NCCCNC(=O)[C@@H](N)[C@H](C)O)[C@@H](O)[C@H]1O[C@@H](n2ccc(=O)[nH]c2=O)[C@H](OC(C)=O)[C@@H]1OC(C)=O (stereo partly drawn) [Example 33, Ethyl (3R)-2-[(3-{[(2S,3S)-2-amino-3-hydroxybutanoyl]amino}propyl)amino]-3-[(2R,3R,4R,5R)-3,4-bis(acetyloxy)-5-(2,4-dioxo-3,4-dihydro-1(2H)-pyrimidinyl)tetrahydro-2-furanyl]-3-hydroxypropanoate] | > 128 | > 128 | > 128 | > 128 | > 128 | > 128 | > 128 | > 128 | > 128 | > 128 | > 128 | > 128 | > 128 | > 128 | > 128 | > 128 | > 128 | > 128 | > 128 | > 128 | – |
| COc1ccc(Cn2c(=O)ccn([C@@H]3OC([C@@H](O)[C@H](NCCCNC(=O)[C@@H](N)[C@H](C)O)C(=O)OC(C)(C)C)[C@@H](O[Si](C)(C)C(C)(C)C)[C@H]3O[Si](C)(C)C(C)(C)C)c2=O)cc1 (stereo partly drawn) [Example 9, tert-Butyl (2S,3S)-2-[(3-{[(2S,3S)-2-amino-3-hydroxybutanoyl]amino}propyl)amino]-3-[(3R,4R,5R)-3,4-bis{[tert-butyl(dimethyl)silyl]oxy}-5-(3-(4-methoxybenzyl)-2,4-dioxo-3,4-dihydro-1(2H)-pyrimidinyl)tetrahydro-2-furanyl]-3-hydroxypropanoate] | > 128 | 128 (≈ 145 µM) | > 128 | > 128 | 128 (≈ 145 µM) | > 128 | > 128 | > 128 | 128 (≈ 145 µM) | 128 (≈ 145 µM) | 128 (≈ 145 µM) | 8 (≈ 9.09 µM) | 128 (≈ 145 µM) | 128 (≈ 145 µM) | > 128 | 128 (≈ 145 µM) | 128 (≈ 145 µM) | 128 (≈ 145 µM) | > 128 | 128 (≈ 145 µM) | – |
